# How the values were obtained:
# [1] = tested on: Salmonella Typhimurium arginine-binding protein STM4351 variant T138A with cpYFP inserted at the 200/203 site (STM4351-200/203-T138A-cpYFP), SEQ ID NO: 12; test: Fluorescence response and titration of purified probe with arginine
# Method: (§1) • 1. Transform the pET28a-based arginine probe plasmid into BL21(DE3), culture overnight in an inverted manner, pick a clone from the plate into a 250 ml conical flask, place in a 37 °C shaker, culture at 220 rpm until OD = 0.4-0.8, add IPTG (1 M) at 1/1000 (v/v), and induce expression at 18 °C for 24-36 h. • 2. After induction expression, collect the bacteria by centrifugation at 4000 rpm for 30 minutes, add 50 mM phosphate buffer to resuspend the bacterial pellet, and ultrasonically disrupt until the bacteria are clarified. Centrifuge at 9600 rpm at 4 °C for 20 minutes. • 3. The centrifuged supernatant is purified by a self-assembled nickel column affinity chromatography column to obtain the protein, and the protein after nickel column affinity chromatography is then passed through a self-assembled desalting column to obtain the protein dissolved in 20 mM MOPS buffer (pH 7.4) or phosphate buffer PBS. • 4. The purified arginine-binding protein mutant protein is identified by SDS-PAGE, and the probe is diluted with assay buffer (100 mM HEPES, 100 mM NaCl, pH 7.3) or phosphate buffer PBS to a final concentration of 5-10 µM protein solution. […] Take 100 µl of 5 µM protein solution, incubate at 37 °C for 5 min, add arginine respectively and mix to a final concentration of 100 mM, and measure the light absorption of the protein at 340 nm using a multifunctional fluorescence microplate reader. • 6. Take 100 µl of 1 µM fluorescent probe solution, incubate at 37 °C for 5 min, add arginine for titration, and measure the fluorescence intensity of the protein at 528 nm emission after 485 nm fluorescence excitation. The measurement of fluorescence excitation and emission of samples is completed using a multifunctional fluorescence microplate reader. • 7. Take 100 µl of 1 µM fluorescent probe solution, incubate at 37 °C for 5 min, add arginine, and measure the absorption spectrum and fluorescence spectrum of the probe protein. The measurement of absorption spectrum and fluorescence spectrum of samples is completed by a spectrophotometer and a fluorescence spectrophotometer. […]
# [2] = tested on: Salmonella Typhimurium arginine-binding protein STM4351 variant G89A with cpYFP inserted at the 200/203 site (STM4351-200/203-G89A-cpYFP), SEQ ID NO: 7; test: as above
# Method: as §1, with “3.” for “3. The centrifuged supernatant is purified by a self-assembled nickel column affinity chromatography column to obtain the protein, and the protein after nickel column affinity chromatography is then passed through a self-assembled desalting column to obtain the protein dissolved in 20 mM MOPS buffer (pH 7.4) or phosphate buffer PBS. • 4. The purified arginine-binding protein mutant protein is identified by SDS-PAGE, and the probe is diluted with assay buffer (100 mM HEPES, 100 mM NaCl, pH 7.3) or phosphate buffer PBS to a final concentration of 5-10 µM protein solution.”, “protein.” for “protein. The measurement of absorption spectrum and fluorescence spectrum of samples is completed by a spectrophotometer and a fluorescence spectrophotometer.”
# [3] = tested on: Salmonella Typhimurium arginine-binding protein STM4351 variant E37A with cpYFP inserted at the 200/203 site (STM4351-200/203-E37A-cpYFP), SEQ ID NO: 5; test: as above
# Method: • 1. Transform the pET28a-based arginine probe plasmid into BL21(DE3), culture overnight in an inverted manner, pick a clone from the plate into a 250 ml conical flask, place in a 37 °C shaker, culture at 220 rpm until OD = 0.4-0.8, add IPTG (1 M) at 1/1000 (v/v), and induce expression at 18 °C for 24-36 h. • 2. After induction expression, collect the bacteria by centrifugation at 4000 rpm for 30 minutes, add 50 mM phosphate buffer to resuspend the bacterial pellet, and ultrasonically disrupt until the bacteria are clarified. Centrifuge at 9600 rpm at 4 °C for 20 minutes. • 3. The centrifuged supernatant is purified by a self-assembled nickel column affinity chromatography column to obtain the protein, and the protein after nickel column affinity chromatography is then passed through a self-assembled desalting column to obtain the protein dissolved in 20 mM MOPS buffer (pH 7.4) or phosphate buffer PBS. • 4. The purified arginine-binding protein mutant protein is identified by SDS-PAGE, and the probe is diluted with assay buffer (100 mM HEPES, 100 mM NaCl, pH 7.3) or phosphate buffer PBS to a final concentration of 5-10 µM protein solution. Prepare arginine into a stock solution with a final concentration of 1 M using assay buffer (20 mM MOPS, pH 7.4) or phosphate buffer PBS. • 5. Take 100 µl of 5 µM protein solution, incubate at 37 °C for 5 min, add arginine respectively and mix to a final concentration of 100 mM, and measure the light absorption of the protein at 340 nm using a multifunctional fluorescence microplate reader. • 6. Take 100 µl of 1 µM fluorescent probe solution, incubate at 37 °C for 5 min, add arginine for titration, and measure the fluorescence intensity of the protein at 528 nm emission after 485 nm fluorescence excitation. The measurement of fluorescence excitation and emission of samples is completed using a multifunctional fluorescence microplate reader. • 7. Take 100 µl of 1 µM fluorescent probe solution, incubate at 37 °C for 5 min, add arginine, and measure the absorption spectrum and fluorescence spectrum of the probe protein. The measurement of absorption spectrum and fluorescence spectrum of samples is completed by a spectrophotometer and a fluorescence spectrophotometer.
# Screen the purified STM4351-cpYFP fusion protein for arginine response, and divide the detection signal of the fusion fluorescent protein containing 100 mM arginine by the detection signal of the fusion fluorescent protein without arginine. […]
# Purify the mutant STM4351-200/203-E37A-cpYFP with high response multiple and good specificity. […] Determination of emission spectrum: fix the excitation wavelengths at 420 nm and 485 nm respectively, record the emission spectrum at […]-540 nm, and read once every 5 nm.
# [4] = tested on: Salmonella Typhimurium arginine-binding protein STM4351 variant H140A with cpYFP inserted at the 200/203 site (STM4351-200/203-H140A-cpYFP), SEQ ID NO: 14; test: Fluorescence response of purified probe to arginine; conditions: signal with 100 mM arginine divided by signal without arginine, Figure 2
# Method: as §1
# [5] = tested on: Salmonella Typhimurium arginine-binding protein STM4351 variant D91A with cpYFP inserted at the 200/203 site (STM4351-200/203-D91A-cpYFP), SEQ ID NO: 9; test: as above; conditions: signal with 100 mM arginine divided by signal without arginine, Figure 2
# Method: as §1
# [6] = tested on: Salmonella Typhimurium arginine-binding protein STM4351 variant T32A with cpYFP inserted at the 200/203 site (STM4351-200/203-T32A-cpYFP), SEQ ID NO: 4; test: as above; conditions: signal with 100 mM arginine divided by signal without arginine, Figure 2
# Method: as §1
# [7] = 500 mM arginine compared with 0 mM arginine, Figure 4
structure (smiles),measurement,setting,value
"N=C(N)NCCC[C@H](N)C(=O)O [arginine, Arginine]","response to arginine, response multiple","[1]; arginine titration, Figure 3",~3.14
same,Kd,"[1]; arginine titration, Figure 3, read-out: affinity for the substrate",190 µM
same,response to arginine,"[1]; signal with 100 mM arginine divided by signal without arginine, Figure 2",exceeding 3 times
same,"response to arginine, response multiple",[2]; Figure 3,about 1.29
same,Kd,"[2]; Figure 3, read-out: affinity for the substrate",23.6 µM
same,fluorescence intensity under 420 nm excitation,[3]; [7],basically unchanged
same,fluorescence intensity under 485 nm excitation,[3]; [7],about 15.0 times
same,response to arginine,"[3]; arginine titration, Figure 3",about 15 times
same,Kd,"[3]; arginine titration, Figure 3, saturation at 10 mM arginine, read-out: affinity for the substrate",170 to 210 µM
same,response to arginine,[4],exceeding 3 times
same,response to arginine,[5],exceeding 3 times
same,response to arginine,[6],exceeding 3 times

# Source: EP4650361A1, “ARGININE OPTICAL PROBE” (East China University of Science and Technology, priority 2023, dated 2024)
